Results: ChEMBL document CHEMBL1127439, “Structure-activity relationship studies of central nervous system agents. 13. 4-[3-(Benzotriazol-1-yl)propyl]-1-(2-methoxyphenyl)piperazine, a new putative 5-HT1A receptor antagonist, and its analogs” (J Med Chem, 1994)

Experiments:
[1] = molecular target: T1, 5-hydroxytryptamine receptor 1A (Rattus norvegicus, UniProt P19327); experiment: Tested in vitro for receptor binding affinity against 5-hydroxytryptamine 1A receptor using radioligand [3H]8-OH-DPAT
T1 sequence (P19327 whole entry): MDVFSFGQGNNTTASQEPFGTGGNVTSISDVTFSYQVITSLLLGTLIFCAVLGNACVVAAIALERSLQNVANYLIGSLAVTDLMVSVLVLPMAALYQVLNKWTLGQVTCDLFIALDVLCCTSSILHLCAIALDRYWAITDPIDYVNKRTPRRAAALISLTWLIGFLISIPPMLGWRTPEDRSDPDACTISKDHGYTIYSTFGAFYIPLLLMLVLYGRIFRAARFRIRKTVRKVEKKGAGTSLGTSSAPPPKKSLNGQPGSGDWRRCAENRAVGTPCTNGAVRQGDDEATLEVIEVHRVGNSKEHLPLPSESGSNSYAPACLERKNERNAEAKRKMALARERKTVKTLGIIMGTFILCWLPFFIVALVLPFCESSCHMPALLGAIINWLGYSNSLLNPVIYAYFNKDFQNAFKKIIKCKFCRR

[2] = molecular target: Serotonin 2 (5-HT2) receptor (Rattus norvegicus, UniProt P30994+P08909+P14842); experiment: Tested in vitro for receptor binding affinity against 5-hydroxytryptamine 2 receptor using radioligand [3H]ketanserin; type: protein assay
Rattus norvegicus [3] = species: Rattus norvegicus; experiment: Selectivity is the ratio between Ki values of 5-HT2 and 5-HT1A
Mus musculus [4] = experiment: Effect on body temperature in mice at intraperitoneal dosage of 10 mg/kg, (compound administered 30 min before the test) after 60 min; type: functional
Mus musculus [5] = experiment: Effect on body temperature in mice at intraperitoneal dosage of 10 mg/kg, (compound administered 30 min before the test) after 45 min; type: functional
Mus musculus [6] = experiment: Effect on body temperature in mice at intraperitoneal dosage of 10 mg/kg, (compound administered 30 min before the test) after 30 min; type: functional
Mus musculus [7] = experiment: Effect on 8-OH-DPAT-induced hypothermia in mice (5 mg/kg) at intraperitoneal dosage of 10 mg/kg of compound after 15 mins; type: functional
Mus musculus [8] = experiment: Effect on 8-OH-DPAT-induced hypothermia in mice (5 mg/kg) at intraperitoneal dosage of 10 mg/kg of compound after 30 mins; type: functional
Mus musculus [9] = experiment: Effect on 8-OH-DPAT-induced hypothermia in mice (5 mg/kg) at intraperitoneal dosage of 10 mg/kg of compound after 45 mins.; type: functional
Mus musculus [10] = experiment: Effect on 8-OH-DPAT-induced hypothermia in mice (5 mg/kg) at intraperitoneal dosage of 10 mg/kg of compound after 60 mins; type: functional
Rattus norvegicus [11] = experiment: Tested for the effect on 8-OH-DPAT-induced behavior in reserpine pretreated rat against flat body posture at dosage of 10 mg/kg; type: functional
Rattus norvegicus [12] = experiment: Tested for the effect on 8-OH-DPAT-induced behavior in reserpine pretreated rat against forepaw treading at dosage of 10 mg/kg; type: functional
Rattus norvegicus [13] = experiment: Tested for the effect on 8-OH-DPAT-induced lower lip retraction (LLR) in rat at dosage of 10 mg/kg; type: functional
Rattus norvegicus [14] = experiment: Tested for the induction of lower lip retraction (LLR) by the investigated compounds in rat at dosage of 10 mg/kg; type: functional
Mus musculus [15] = experiment: Effect on body temperature in mice at intraperitoneal dosage of 16 mg/kg, (compound administered 30 min before the test) after 30 min; type: functional
Mus musculus [16] = experiment: Effect on body temperature in mice at intraperitoneal dosage of 16 mg/kg, (compound administered 30 min before the test) after 60 min; type: functional
Mus musculus [17] = experiment: Effect on body temperature in mice at intraperitoneal dosage of 16 mg/kg, (compound administered 30 min before the test) after 75 min; type: functional
Mus musculus [18] = experiment: Effect on body temperature in mice at intraperitoneal dosage of 16 mg/kg, (compound administered 30 min before the test) after 90 min; type: functional
Mus musculus [19] = experiment: Effect on 8-OH-DPAT-induced hypothermia in mice (5 mg/kg) at intraperitoneal dosage of 4 mg/kg of compound after 45 mins; type: functional
Mus musculus [20] = experiment: Effect on 8-OH-DPAT-induced hypothermia in mice (5 mg/kg) at intraperitoneal dosage of 4 mg/kg of compound after 60 mins; type: functional
Mus musculus [21] = experiment: Effect on 8-OH-DPAT-induced hypothermia in mice (5 mg/kg) at intraperitoneal dosage of 8 mg/kg of compound after 15 mins; type: functional
Mus musculus [22] = experiment: Effect on 8-OH-DPAT-induced hypothermia in mice (5 mg/kg) at intraperitoneal dosage of 8 mg/kg of compound after 30 mins; type: functional
Mus musculus [23] = experiment: Effect on 8-OH-DPAT-induced hypothermia in mice (5 mg/kg) at intraperitoneal dosage of 8 mg/kg of compound after 45 mins; type: functional
Mus musculus [24] = experiment: Effect on 8-OH-DPAT-induced hypothermia in mice (5 mg/kg) at intraperitoneal dosage of 8 mg/kg of compound after 60 mins; type: functional
Mus musculus [25] = experiment: Effect on body temperature in mice at intraperitoneal dosage of 8 mg/kg, (compound administered 30 min before the test) after 75 min; type: functional
Mus musculus [26] = experiment: Effect on body temperature in mice at intraperitoneal dosage of 8 mg/kg, (compound administered 30 min before the test) after 90 min; type: functional
Mus musculus [27] = experiment: effect on body temperature in mice at intraperitoneal dosage of 16 mg/kg, (compound administered 30 min before the test) after 45 min; type: functional
Mus musculus [28] = experiment: Effect on 8-OH-DPAT-induced hypothermia in mice (5 mg/kg) at intraperitoneal dosage of 16 mg/kg of compound after 15 mins; type: functional
Mus musculus [29] = experiment: Effect on 8-OH-DPAT-induced hypothermia in mice (5 mg/kg) at intraperitoneal dosage of 16 mg/kg of compound after 30 mins; type: functional
Mus musculus [30] = experiment: Effect on 8-OH-DPAT-induced hypothermia in mice (5 mg/kg) at intraperitoneal dosage of 16 mg/kg of compound after 45 mins; type: functional
Mus musculus [31] = experiment: Effect on 8-OH-DPAT-induced hypothermia in mice (5 mg/kg) at intraperitoneal dosage of 16 mg/kg of compound after 60 mins; type: functional
Mus musculus [32] = experiment: Effect on 8-OH-DPAT-induced hypothermia in mice (5 mg/kg) at intraperitoneal dosage of 4 mg/kg of compound after 15 mins; type: functional
Mus musculus [33] = experiment: Effect on 8-OH-DPAT-induced hypothermia in mice (5 mg/kg) at intraperitoneal dosage of 4 mg/kg of compound after 30 mins; type: functional
Mus musculus [34] = experiment: Effect on body temperature in mice at intraperitoneal dosage of 4 mg/kg, (compound administered 30 min before the test) after 60 min; type: functional
Mus musculus [35] = experiment: Effect on body temperature in mice at intraperitoneal dosage of 4 mg/kg, (compound administered 30 min before the test) after 75 min; type: functional
Mus musculus [36] = experiment: Effect on body temperature in mice at intraperitoneal dosage of 4 mg/kg, (compound administered 30 min before the test) after 90 min; type: functional
Mus musculus [37] = experiment: Effect on body temperature in mice at intraperitoneal dosage of 4 mg/kg, (compound administered 30 min before the test) after 30 min; type: functional
Mus musculus [38] = experiment: Effect on body temperature in mice at intraperitoneal dosage of 8 mg/kg, (compound administered 30 min before the test) after 30 min; type: functional
Mus musculus [39] = experiment: Effect on body temperature in mice at intraperitoneal dosage of 8 mg/kg, (compound administered 30 min before the test) after 45 min; type: functional
Mus musculus [40] = experiment: Effect on body temperature in mice at intraperitoneal dosage of 8 mg/kg, (compound administered 30 min before the test) after 60 min; type: functional
Rattus norvegicus [41] = experiment: Tested for the effect on 8-OH-DPAT-induced behavior in reserpine pretreated rat against flat body posture at dosage of 16 mg/kg; type: functional
Rattus norvegicus [42] = experiment: Tested for the effect on 8-OH-DPAT-induced behavior in reserpine pretreated rat against flat body posture at dosage of 4 mg/kg; type: functional
Rattus norvegicus [43] = experiment: Tested for the effect on 8-OH-DPAT-induced behavior in reserpine pretreated rat against flat body posture at dosage of 8 mg/kg; type: functional
Rattus norvegicus [44] = experiment: Tested for the effect on 8-OH-DPAT-induced behavior in reserpine pretreated rat against forepaw treading at dosage of 16 mg/kg; type: functional
Rattus norvegicus [45] = experiment: Tested for the effect on 8-OH-DPAT-induced behavior in reserpine pretreated rat against forepaw treading at dosage of 8 mg/kg; type: functional
Rattus norvegicus [46] = experiment: Tested for the effect on 8-OH-DPAT-induced lower lip retraction (LLR) in rat at dosage of 16 mg/kg; type: functional
Rattus norvegicus [47] = experiment: Tested for the effect on 8-OH-DPAT-induced lower lip retraction (LLR) in rat at dosage of 2 mg/kg; type: functional
Rattus norvegicus [48] = experiment: Tested for the effect on 8-OH-DPAT-induced lower lip retraction (LLR) in rat at dosage of 4 mg/kg; type: functional
Rattus norvegicus [49] = experiment: Tested for the effect on 8-OH-DPAT-induced lower lip retraction (LLR) in rat at dosage of 8 mg/kg; type: functional
Rattus norvegicus [50] = experiment: Tested for the induction of lower lip retraction (LLR) by the investigated compounds in rat at dosage of 16 mg/kg; type: functional
Rattus norvegicus [51] = experiment: Tested for the induction of lower lip retraction (LLR) by the investigated compounds in rat at dosage of 2 mg/kg; type: functional
Rattus norvegicus [52] = experiment: Tested for the induction of lower lip retraction (LLR) by the investigated compounds in rat at dosage of 4 mg/kg; type: functional
Rattus norvegicus [53] = experiment: Tested for the induction of lower lip retraction (LLR) by the investigated compounds in rat at dosage of 8 mg/kg; type: functional
Mus musculus [54] = experiment: Effect on body temperature in mice at intraperitoneal dosage of 4 mg/kg, (compound administered 30 min before the test) after 45 min; type: functional
Rattus norvegicus [55] = experiment: Tested for the effect on 8-OH-DPAT-induced behavior in reserpine pretreated rat against forepaw treading at dosage of 4 mg/kg; type: functional

COc1ccccc1N1CCN(CCn2nnc3ccccc32)CC1
Ki [1]: 0.042 µM
Ki [2]: 1.62 µM
Selectivity (Rattus norvegicus [3]): 39

COc1ccccc1N1CCN(C[C@@H](C(=O)NC(C)(C)C)c2ccccc2)CC1
Delta t (Mus musculus [4]): 0.2 °C
Delta t (Mus musculus [5]): 0.2 °C
Delta t (Mus musculus [6]): 0.2 °C
Delta t (Mus musculus [7]): 0.2 °C
Delta t (Mus musculus [8]): 0 °C
Delta t (Mus musculus [9]): 0.3 °C
Delta t (Mus musculus [10]): 0.1 °C
Behavioral score (Rattus norvegicus [11]): 9.7
Behavioral score (Rattus norvegicus [12]): 1
LLR score (Rattus norvegicus [13]): 0.8
LLR score (Rattus norvegicus [14]): 0.1

CCCCN1CCN(c2ccccc2OC)CC1
Ki [1]: 0.057 µM
Ki [2]: 2.28 µM
Selectivity (Rattus norvegicus [3]): 40

CCN1CCN(c2ccccc2OC)CC1
Ki [1]: 0.203 µM
Ki [2]: 3.12 µM
Selectivity (Rattus norvegicus [3]): 15

CCCN1CCN(c2ccccc2OC)CC1
Ki [2]: 3.29 µM
Selectivity (Rattus norvegicus [3]): 13

COc1ccccc1N1CCN(CCn2nc3ccccc3n2)CC1
Ki [1]: 0.041 µM
Ki [2]: 1.76 µM
Selectivity (Rattus norvegicus [3]): 43

COc1ccccc1N1CCN(CCCn2nc3ccccc3n2)CC1
Ki [1]: 0.024 µM
Ki [2]: 1.58 µM
Delta t (Mus musculus [15]): 0.2 °C
Delta t (Mus musculus [16]): 0.3 °C
Delta t (Mus musculus [17]): 0.4 °C
Delta t (Mus musculus [18]): 0.2 °C
Delta t (Mus musculus [19]): 0.9 °C
Delta t (Mus musculus [20]): 0.6 °C
Delta t (Mus musculus [21]): 2 °C
Delta t (Mus musculus [22]): 1.5 °C
Delta t (Mus musculus [23]): 0.9 °C
Delta t (Mus musculus [24]): 0.7 °C
Delta t (Mus musculus [25]): 0.3 °C
Delta t (Mus musculus [26]): 0.3 °C
Delta t (Mus musculus [27]): 0.3 °C
Delta t (Mus musculus [28]): 2.6 °C
Delta t (Mus musculus [29]): 2 °C
Delta t (Mus musculus [30]): 1.3 °C
Delta t (Mus musculus [31]): 0.9 °C
Delta t (Mus musculus [32]): 1.8 °C
Delta t (Mus musculus [33]): 1.4 °C
Delta t (Mus musculus [34]): 0.1 °C
Delta t (Mus musculus [35]): 0.2 °C
Delta t (Mus musculus [36]): 0.1 °C
Delta t (Mus musculus [37]): 0.1 °C
Delta t (Mus musculus [38]): 0.1 °C
Delta t (Mus musculus [39]): 0.2 °C
Delta t (Mus musculus [40]): 0.4 °C
Behavioral score (Rattus norvegicus [41]): 12.4
Behavioral score (Rattus norvegicus [42]): 13.8
Behavioral score (Rattus norvegicus [43]): 11.8
Behavioral score (Rattus norvegicus [44]): 4
Behavioral score (Rattus norvegicus [45]): 4.8
LLR score (Rattus norvegicus [46]): 2.2
LLR score (Rattus norvegicus [47]): 2.3
LLR score (Rattus norvegicus [48]): 1.8
LLR score (Rattus norvegicus [49]): 1.8
LLR score (Rattus norvegicus [50]): 0.3
LLR score (Rattus norvegicus [51]): 0.2
LLR score (Rattus norvegicus [52]): 0.2
LLR score (Rattus norvegicus [53]): 0.4
Selectivity (Rattus norvegicus [3]): 66
Delta t (Mus musculus [54]): 0.3 °C
Behavioral score (Rattus norvegicus [55]): 8
